# In patent US20130053434A1, “IRREVERSIBLE INHIBITORS USEFUL FOR THE TREATMENT OF KINASE-RELATED PATHOLOGIES” (CENTRE NATIONAL DE LA RECHERCHE SCIENTIFIQUE, priority 2009, published 2013):
# Key:
# colon and lung tumors = conditions: mice bearing colon and lung tumors; cited from earlier work
# [1] = in vivo; cited from earlier work
# ERK2 = ERK2 (Homo sapiens, UniProt P28482); conditions: covalent Michael adduct with cys166; cited from earlier work
# VEGFR2 [2] = target: T1, VEGFR2 (Homo sapiens, UniProt P35968); experiment: cellular inhibition of VEGFR2; type: cell-based; conditions: triplicate
# Procedure: FIG. 21. […] Assays were performed in triplicate.
# To gage the undiscriminate reactivity of these enone resorcylic acids with thiols, fluoroenone 2 and the parent analogue lacking the fluoride were treated with one equivalent of DTT (2 mM) as a prototypical thiol nucleophile in PBS (pH 7.4) containing 1% DMSO. […] With fluoroenone 1 and 2 in hand, we tested their efficacy against VEGF-R2 which was frequently found to be the most inhibited kinase in our profile of cis-enone resorcylic acid library (Dakas, P. Y., et al. (2007) Angew. Chem. Int. Ed. Engl. 46, 6899-902; Jogireddy, R., et al. (2009) Chem. Eur. J. 15, 11498-506) and KIT which represents a less inhibited kinase. […] Their cellular activity against VEGF-R2 did parallel the biochemical activity. […] During the course of our investigation, a similar modification was reported by researchers from Esai (Du, H., et al. (2009) Bioorg. Med. Chem. Lett. 19, 6196-9) however, their medicinal chemistry efforts focused the inhibition of inflammation related pathways (MEKs and their down-stream regulatory effect on cytokines) (Du, H., et al. (2009) Bioorg. Med. Chem. Lett. 19, 6196-9; Goto, M., et al. (2009) J. Pharmacol. Exp. Ther. 331, 485-95). […]
# [3] = isomerization of the enone under acid deprotection conditions; type: physicochemical; conditions: prolonged reaction times
# Excerpt: The synthesis commenced with the straightforward conversion of ester 5 into fluoroenal 7 via aldehyde 6 relying on a Horner-Wadsworth-Emmons reaction with triethyl 2-fluoro-2-phosphonoacetate to install the desired E-fluoroenoal (FIG. 19). Reaction of aldehyde 7 with […] afforded the desired alcohol as a 1:1 diasteromeric mixture which was reduced to the cis-alkene using Lindlar's catalyst (H2, Pd/CaCO3) to afford compound 9. As the hydroxyl group will ultimately be oxidized to the ketone, the lack of selectivity is inconsequential. Benzoyl protection of alcohol 9 thus afforded 10 wherein the terminal OPMB was converted to an iodide 11 (DDQ; I2, PPh3, imidazole). Attempts to engage this compound in alkylation chemistry with a phenol led to rapid elimination of the iodide to give a conjugated triene (product not shown). To circumvent this elimination which was thought to be facilitated by the presence of the alkene, compound 10 was dihydroxylated (2.5:1 dr in favor of the desired isomer 12) and converted to acetonide 13. Conversion of the terminal protected PMB ether into an iodide afforded the key intermediate 14. Following previously established chemistry, fragment 14 was coupled to the aromatic moiety 15 bearing a benzylic selenide by alkylation followed by oxidation/elimination of the selenide to afford 17. […]
# VEGFR2 [4] = target: T1, VEGFR2; experiment: biochemical inhibition of VEGF-R2; conditions: FIG. 20
# Procedure: It should be noted that as these compounds are expected to be irreversible inhibitors, the measured IC50 will depend on the procedure used and caution should be applied in comparing data from experiments performed under different conditions. To obtain a value which best reflects the rate of inactivation, the substrate and inhibitor were added simultaneously to the kinase solution. The data is shown in FIG. 9 (kinases have been ranked from the highest to least inhibited). As evident from FIG. 9, there is very little difference in relative selectivity of kinase inhibition throughout the library under these conditions. […] Overall, the trend of structure activity relationship which emerged from this screen is that the chiral methyl group at the ester position, while not essential, does provide higher activity (entry 6 vs. 10, 7 vs. 11 and 8 vs. 12). Substitution at the adjacent position with a hydroxyl group (entry 14 vs. 7) or at the β-position of the enone with a methyl abrogated activity (15-19). […] The trend of activity for the three natural products can be ranked as follows: alkene=epoxide>alkane. […] The two modifications of R^2 tested were beneficial in certain combinations. For example, the extra hydroxyl group present in fragment i does afford a significant (10 fold) gain of activity (8 vs. 7) in combination with fragment a. […]
# dose finding study = type: in vivo
# Excerpt: (§1) As a bench mark, the natural product LL Z-1640-2 was also included in the assay. […] Compound 3 and 5 were selected as prototypical examples of modified RALs for further investigations. As described in the method section, both of these compounds derived from a common synthetic intermediate and can be readily prepared in gram quantities. […] Primary tumor weight confirmed these observations. A key objective of this study was to measure the effect of these compounds on metastasis. Upon termination of the study, the lungs were inspected for metastatic nodules and the ex-vivo luciferase activity of lung homogenates was measured. […] It should be noted that these compounds were also shown to inhibit the inflammation pathways which have been implicated in facilitating metastasis.
# [5] = solubility in aqueous buffers; type: physicochemical; conditions: compared with 5
# Excerpt: as §1
# plasma half-life = type: in vitro ADME
# RENCA-LN cells = experiment: RENCA cell proliferation assay; type: cell-based, Murine
# Procedure: Murine RENCA cells were originally obtained from a tumor that arose spontaneously in the kidney of BALB/c mice. Histologically, RENCA consists of granular cell type adenocarcinoma, which is pleomorphic with large nuclei. To obtain RENCA-LN, RENCA cells were transduced using a retrovirus encoding a luciferase-neomycin fusion protein and selected using 1 mg/ml G418. RENCA-LN cells were plated with 1.500 cells/150 μl/well in DMEM supplemented with 10% FCS in 96 well culture dishes. The following day the serial diluted test samples (from 1 mM to 0.1 μM in DMSO) were mixed with medium (1:25) and 50 μl of the mix was added to each well of the cultured cells (1:4) resulting in a final DMSO concentration of 1%. Cells were grown for 72 h at 10% CO2 and 37° C. After 72 h RENCA-LC cells were lysed in 100 μL luciferase assay buffer, and 10 μl of the lysate was assayed for luciferase activity. The mean value of the low controls of each 96 well cell culture plate represents the background which was subtracted from all other data points of the respective plate. Raw data were converted into percent proliferation relative to the high control, which were set to 100%. […] determination was done with GraphPad Prism 5.01 software with constrain of bottom to 0 and top to 100 using a nonlinear regression curve fit with variable hill slope. The equation is a four-parameter logistic equation. […]
# [6] = system: orthotopically implanted RENCA-LN cells; experiment: orthotopic murine renal cell carcinoma (RENCA) model, in vivo efficacy; conditions: for tumor growth by bioluminescence and primary tumor volume: 20 mg/kg i.p.
# Procedure: RENCA-LN cells were obtained and cultured as described above. Sixty female BALB/c mice of 5 to 6 weeks were orthotopically implanted RENCA-LN cells into the left kidney (4×10^5 cells in 25 μl aliquots into the subcapsular space through a flank incision, Day 0). The mice were randomly divided into 5 groups of 12 mice each. On day 2, therapy was initiated. Animals in the vehicle control group (group 1) received 10 ml/kg Vehicle (PBS w/o Ca/Mg, 10% DMSO, 40% PEG-300) i.p. once daily until day 19. Animals of positive control group (group 2) received 40 mg/kg Sunitinib (Sutent®) p.o. once daily until day 20. Animals of treatment group 3 and 4 received 20 mg/kg of 3 once daily and every other day respectively (i.p.). Animals of treatment group 5 received 20 mg/kg of 5 once daily (i.p.). Due to partial weight loss, therapy in Groups 3 and 5 was suspended on days 11 and 12 and stopped on day 17. On day 20, the study was terminated and a necropsy performed. All animals were weighted, anaesthetised by isoflurane and killed by exsanguination. Two animals in group 1 were found dead on day 19 and 1 animal in group 3 and 5 on day 11 and 9 respectively. At necropsy, primary tumor weight and volume, lung weight and number of lung metastases were determined. Primary tumor tissues were collected and divided into two parts. One part of each tumor was snap-frozen in liquid nitrogen and stored at −80° C. whereas the other part was analyzed via ex vivo bioluminescence imaging. During the course of the study, the growth of the orthotopically implanted RENCA tumors was monitored on days 7, 14 and 19 using in vivo bioluminescence imaging. For this purpose, luciferin was injected intraperitoneally (i.p.) into the mice and light emission was measured post injection (10 min) using a NightOWL LB 981 bioluminescence imaging system (Berthold Technologies, Germany). The migration of RENCA tumor cells into the lung (metastasis) was analyzed post necropsy by counting nodules and using the luciferase assay. For this purpose, lungs were collected, homogenized, and assayed for luciferase activity using the kit from Promega (E1501) according to the manufacturer's instructions. Protein concentrations were determined using a Bradford assay and used to normalize luciferase activities (except for the primary tumor). A histological examination of the tumor vasculature was performed. For this purpose, cryosections of primary tumor tissues (thickness=5-10 μm) from the snap-frozen portion of the organ and blood vessels were visualized by immunohistochemical staining for CD 31 (PECAM-1; PharMingen, San Diego, Calif.). […] Statistical analysis of efficacy data was done using the Mann Whitney test.
# VEGFRs = experiment: KinomeScan kinase selectivity profile (50 kinases): VEGFRs; type: binding; conditions: 1 μM
# Excerpt: The selectivity profile was measure using the KinomeScan™ technology (http://www.kinomescan.com/) based on active-site dependent competition binding assay (Karaman, M. W., et al. (2008) Nat. Biotechnol. 26, 127-32; Fabian, M. A., et al. (2005) Nat. Biotechnol. 23, 329-36). Compounds 3 and 5 were profiled against a panel of 50 kinases including 42 kinases from the group of 48 kinases predicted by Santi et al. (Schirmer, A., et al. (2006) Proc. Natl. Acad. Sci. USA 103, 4234-9) to be targeted by hypothemycin and 5 mutants of FLT3 as well as 3 mutants of KIT. Both compounds were assayed at 1 μM. The results are expressed as a percentage of signal between a negative (DMSO) and positive (know binder) control [(test compound−positive control)/([…])×100].
# [7] = reactivity with DTT as prototypical thiol nucleophile; type: physicochemical; conditions: one equivalent of DTT (2 mM), PBS pH 7.4, 1% DMSO
# Procedure: To gage the undiscriminate reactivity of these enone resorcylic acids with thiols, fluoroenone 2 and the parent analogue lacking the fluoride were treated with one equivalent of DTT (2 mM) as a prototypical thiol nucleophile in PBS (pH 7.4) containing 1% DMSO. […] With fluoroenone 1 and 2 in hand, we tested their efficacy against VEGF-R2 which was frequently found to be the most inhibited kinase in our profile of cis-enone resorcylic acid library (Dakas, P. Y., et al. (2007) Angew. Chem. Int. Ed. Engl. 46, 6899-902; Jogireddy, R., et al. (2009) Chem. Eur. J. 15, 11498-506) and KIT which represents a less inhibited kinase. […] Their cellular activity against VEGF-R2 did parallel the biochemical activity. […] During the course of our investigation, a similar modification was reported by researchers from Esai (Du, H., et al. (2009) Bioorg. Med. Chem. Lett. 19, 6196-9) however, their medicinal chemistry efforts focused the inhibition of inflammation related pathways (MEKs and their down-stream regulatory effect on cytokines) (Du, H., et al. (2009) Bioorg. Med. Chem. Lett. 19, 6196-9; Goto, M., et al. (2009) J. Pharmacol. Exp. Ther. 331, 485-95). […] It was further shown that the addition of a methyl substituent at the δ position to the enone enhanced the metabolic stability with a tolerable loss of activity (10 fold) (Du, H., et al. (2009) Bioorg. Med. Chem. Lett. 19, 6196-9). […]
# MEK1 = MEK1 (Homo sapiens, UniProt Q02750); conditions: cited from earlier work
# Chain of MEK1 (Q02750 whole entry): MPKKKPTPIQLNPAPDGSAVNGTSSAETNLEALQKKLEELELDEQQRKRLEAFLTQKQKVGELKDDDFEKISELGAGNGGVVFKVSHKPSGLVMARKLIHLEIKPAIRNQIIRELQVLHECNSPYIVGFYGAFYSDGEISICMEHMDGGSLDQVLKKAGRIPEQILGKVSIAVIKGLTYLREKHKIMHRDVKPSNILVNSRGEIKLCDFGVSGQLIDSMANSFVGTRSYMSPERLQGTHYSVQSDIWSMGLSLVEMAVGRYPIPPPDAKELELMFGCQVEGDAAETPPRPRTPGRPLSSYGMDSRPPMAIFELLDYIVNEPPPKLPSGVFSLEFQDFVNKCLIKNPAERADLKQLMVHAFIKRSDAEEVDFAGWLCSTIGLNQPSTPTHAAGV
# T1 sequence (P35968 20-1356, species assumed): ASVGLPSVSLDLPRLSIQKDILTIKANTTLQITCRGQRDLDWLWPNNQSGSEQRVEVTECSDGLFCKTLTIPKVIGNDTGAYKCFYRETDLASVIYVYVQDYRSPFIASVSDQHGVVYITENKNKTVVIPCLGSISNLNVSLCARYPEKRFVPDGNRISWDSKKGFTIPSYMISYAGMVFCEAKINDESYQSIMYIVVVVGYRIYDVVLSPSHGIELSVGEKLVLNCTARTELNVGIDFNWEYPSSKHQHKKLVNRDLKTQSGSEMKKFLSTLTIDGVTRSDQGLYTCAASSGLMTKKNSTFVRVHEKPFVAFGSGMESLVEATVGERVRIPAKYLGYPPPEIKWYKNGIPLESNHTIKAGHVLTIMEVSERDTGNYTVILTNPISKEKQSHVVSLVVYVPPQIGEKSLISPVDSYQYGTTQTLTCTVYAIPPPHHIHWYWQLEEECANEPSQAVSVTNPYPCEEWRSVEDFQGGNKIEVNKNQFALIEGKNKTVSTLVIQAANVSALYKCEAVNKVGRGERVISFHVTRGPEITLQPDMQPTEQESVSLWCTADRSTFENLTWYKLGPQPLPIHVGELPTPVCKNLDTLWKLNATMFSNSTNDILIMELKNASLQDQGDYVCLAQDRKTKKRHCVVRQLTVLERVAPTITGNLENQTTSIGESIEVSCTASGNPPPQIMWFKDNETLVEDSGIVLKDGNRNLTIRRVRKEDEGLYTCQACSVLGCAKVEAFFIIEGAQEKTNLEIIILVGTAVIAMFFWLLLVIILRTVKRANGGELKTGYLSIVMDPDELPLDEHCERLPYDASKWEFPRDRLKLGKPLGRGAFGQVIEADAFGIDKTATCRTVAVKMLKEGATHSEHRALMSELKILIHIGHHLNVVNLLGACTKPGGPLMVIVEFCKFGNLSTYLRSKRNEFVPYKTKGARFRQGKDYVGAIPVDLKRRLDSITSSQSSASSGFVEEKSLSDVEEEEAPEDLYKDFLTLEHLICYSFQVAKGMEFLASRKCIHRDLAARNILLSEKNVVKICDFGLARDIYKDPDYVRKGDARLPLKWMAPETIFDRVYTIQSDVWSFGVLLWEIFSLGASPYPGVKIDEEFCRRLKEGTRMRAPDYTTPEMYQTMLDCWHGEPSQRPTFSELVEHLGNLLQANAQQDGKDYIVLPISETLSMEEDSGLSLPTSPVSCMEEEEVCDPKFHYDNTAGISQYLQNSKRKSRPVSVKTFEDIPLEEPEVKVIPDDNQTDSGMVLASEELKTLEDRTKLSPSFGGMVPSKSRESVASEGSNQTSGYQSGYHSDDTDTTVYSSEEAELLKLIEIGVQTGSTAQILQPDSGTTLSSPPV
# Chain of ERK2 (P28482 whole entry, species assumed): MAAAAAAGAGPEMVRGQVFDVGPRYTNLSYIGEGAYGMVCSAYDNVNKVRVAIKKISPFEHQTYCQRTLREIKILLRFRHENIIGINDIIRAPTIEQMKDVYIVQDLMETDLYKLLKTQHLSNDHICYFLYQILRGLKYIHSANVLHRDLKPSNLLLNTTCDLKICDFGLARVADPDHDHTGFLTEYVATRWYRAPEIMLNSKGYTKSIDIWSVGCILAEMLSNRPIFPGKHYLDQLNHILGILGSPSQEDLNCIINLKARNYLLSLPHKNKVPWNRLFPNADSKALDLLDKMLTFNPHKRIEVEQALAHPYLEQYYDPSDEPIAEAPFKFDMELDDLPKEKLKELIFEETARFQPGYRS
smiles,measurement,setting,value
COc1cc(O)c2c(c1)[C@H]1O[C@@H]1C[C@H](O)[C@H](O)C(=O)/C=C\C[C@H](C)OC2=O [hypothemycin],tumor growth inhibition,colon and lung tumors,only modest growth inhibition
same,efficacy in animal models,[1],effective in animal models
same,inactivation of ERK2,ERK2,irreversibly inactivates ERK2
C[C@H]1C/C=C(/F)C(=O)[C@@H](O)[C@@H](O)C/C=C/c2cc(O)cc(O)c2C(=O)O1 [fluoroenone 1],IC50,VEGFR2 [2],17 nM
same,isomerization (epimerization) of the fluoroenone,[3],no trace of isomerization was observed
same,IC50,VEGFR2 [4],6.8 nM
C[C@H]1C/C=C\C(=O)[C@@H](O)[C@@H](O)CCOc2cc(O)cc(O)c2C(=O)O1 [1agh],tolerability,dose finding study; 25 mg/kg,tolerated
same,toxicity at high dose,dose finding study; 75 mg/kg,systemic toxicity
same,solubility in aqueous buffers,[5],notably more soluble in aqueous buffers than 5
same,plasma half-life,plasma half-life,short plasma half life
same,efficacy in inhibiting renal carcinoma cell line compared with natural product LL Z-1640-2,RENCA-LN cells; FIG. 14,as effective as the natural product
same,IC50,"RENCA-LN cells; Mus musculus, Renca, FIG. 12, read-out: IC50, renal carcinoma line (RENCA)",100 to 500 nM
same,"tumor vasculature histology (CD-31 staining), angiogenesis","[6]; 20 mg, q1d",strong inhibition of angiogenesis
same,tumor growth in mice,[6]; 20 and 10 mg/kg,clear reduction in tumor growth
same,tumor growth by bioluminescence and primary tumor volume,[6]; administered every other day,marginal decrease activity
same,animal weights decrease,"[6]; between day 2 and day 5, q1d",8%
same,lung metastasis (metastatic nodules),"[6]; compared with untreated group, lungs inspected at termination",A similar result
same,tumor growth by bioluminescence and primary tumor volume,[6]; daily dosing,highly significant reduction of tumor growth
same,luciferase activity from lung homogenates,"[6]; ex vivo, compared with untreated group",A similar result
same,inhibition of VEGFRs in kinase profile,VEGFRs,strongly inhibited
C[C@H]1C/C=C(/F)C(=O)[C@@H](O)[C@@H](O)CCOc2cc(O)cc(O)c2C(=O)O1 [fluoroenone 2],IC50,VEGFR2 [4],60.5 nM
same,reactivity with DTT compared with parent analogue lacking the fluoride,[7],reacting slower
CCNc1cc(O)c2c(c1)/C=C/C[C@H](O)[C@H](O)C(=O)/C=C\[C@@H](C)[C@H](C)OC2=O [E6201],selectivity for MEK1 relatively to PDGFRβ,MEK1,> 200 fold
